Tested on: MiaPaCa-2 cells
Test: In vivo study, MiaPaCa-2 subcutaneous tumor in nude mice
Conditions: 0.27 mg/kg tail vein injection, 18th day; start 125 mm^3; PBS group 600 mm^3
Experimental: In an embodiment, mice (BALB/cAnN.Cg-Foxn1nu/CrlNarl mice) are reared until 6 weeks of age, and 1×10^6 of MiaPaCa-2 cells are subcutaneously injected into the right rear leg of the mice. […] The experiment is performed until the 18th day, and the tumor size is measured every 2 days. The measurement formula of the tumor size is as follows: ½ (L×W^2), wherein L represents the longest diameter of the tumor; W represents the shortest diameter of the tumor.

In order of falling tumor size:
1. CC(=O)O[C@@]12CO[C@@H]1C[C@H](O)[C@@]1(C)C(=O)[C@H](O)C3=C(C)[C@@H](OC(=O)[C@H](O)[C@@H](NC(=O)OC(C)(C)C)c4ccccc4)C[C@@](O)([C@@H](OC(=O)c4ccccc4)[C@H]21)C3(C)C [Taxatere]  68 mm^3
2. COc1cccc2c1C(=O)c1c(O)c3c(c(O)c1C2=O)C[C@@](O)(C(=O)CO)C[C@@H]3O[C@H]1C[C@H](N)[C@H](O)[C@H](C)O1 [Doxorubicin]  64 mm^3
3. CC[C@@]1(O)C(=O)OCc2c1cc1n(c2=O)Cc2cc3ccccc3nc2-1 [CPT]  52 mm^3
4. Nc1ccn([C@@H]2O[C@H](CO)[C@@H](O)C2(F)F)c(=O)n1 [Gemzar]  30 mm^3

Reference: US20190350939A1, “CANCER TREATMENT METHOD USING Ni-SOD MIMIC COMPOUND” (NATIONAL CHIAO TUNG UNIVERSITY, priority 2018, published 2019)
